Here are results for one molecule from patent US8409552B2, “Anthranillic acid amides and derivatives thereof as cosmetic and pharmaceutical active compounds” (Symrise AG, priority 2002, dated 2013).

Values after ≈ are worked out from the molar mass of the structure shown. Like-named read-outs stand apart in the source and are kept apart here.

Assay [1] has as its system mast cells. As to conditions: cited from earlier work.
The subject of another assay is rat mast cells. As to conditions: oral application, dose of 200 mg/kg; cited from earlier work.
In assay [2] the test system is mast cells. To be noted: Hachisuka et al. 1988; read-out: concentration for 50% inhibition of the substance P-induced histamine release; cited from earlier work.
Assay [3] has as its system mast cells. As to the kind of experiment: Substance P-induced release of histamine from mast cells (Hachisuka et al.). In kind it is cell-based. To be noted: 10^−3 M converted with molecular weight 327. From the text:
As Komatsu et al report, tranilast inhibits the antigen-(DNP ascaris; monoclonal IgE antibody with 2,4-dinitrophenyl-specificity) induced release of histamine from mast cells in the concentration range of 10^−3 to 10^−5 M. It was possible to achieve 50% inhibition of the histamine release at a concentration of approximately 10^−4 M. On the other hand, the influence of other anthranilic acid amides on the inhibition of the release of histamine from mast cells was not described in the publication. Hachisuka et al. (Arch. Dermatol. Res. Vol. 280, p. 158-162; 1988) investigated the influence of various active compounds on the inhibition of the substance P-induced release of histamine from mast cells. Here the activity of disodium chromogylcate (sic), ketotifen and tranilast was compared. […] Other anthranilic acid amides were not investigated in more detail within the framework of this research work either.
The comparatively low activity of tranilast agrees with the research carried out by Hachisuka et al. (Arch Dermatol Res Vol. 280, p. 158-162; 1988). […] Apparently, the alkylation of the vicinal hydroxyl groups in the cinnamic acid part or dihydrocinnamic acid part is accompanied by a significant reduction in activity.

The test system of assay [4] is Mast cells from the peritoneal tissue of rats. As to the kind of experiment: Inhibition of substance P-induced release of histamine from mast cells. Format: cell-based, rat. To be noted: Rattus norvegicus, Mast cell, 2 min; 50 ppm synthetic substance; substance P 10 μM, 37° C.; based on histamine content of cells stimulated with substance P. How it is done:
Stock solutions: avenanthramides 2 to 19 (structural formulae: see Table 1a) and dianthramides 20-29 (structural formulae: see Table 1b); concentration: 1% in ethanol; storage before use at 4° C.) Mast cells from the peritoneal tissue of rats were isolated by centrifuging on metrizamide and stimulated with substance P (10 μM). […] The synthetically prepared avenanthramides and dianthramides of the Formulae 2 to 29 (cf. […] Test system: The final test solutions were incubated for 2 minutes in the presence of substance P and of the reference substance (CaCl2) or of the particular sample to be tested (incubation temperature: 37° C.). Cells that had been incubated in the absence of substance P and reference or sample substance served as blank. The reaction solutions were first freed from cell constituents by centrifuging. The histamine present in the supernatant liquor was then converted to a derivative with OPT and the fluorescence of the solutions was determined photometrically (fluorometer Cytofluor 2350). […] The values for the various avenanthramides are given in Table 2 as % inhibition based on the histamine content of cells stimulated with substance P without the addition of inhibitors.

Regarding `COc1ccc(/C=C/C(=O)Nc2ccccc2C(=O)O)cc1OC` [substance 15, N-(3,4-dimethoxy-cinnamoyl)anthranilic acid], in the assay on mast cells [1] (DNP ascaris, monoclonal IgE antibody with 2,4-dinitrophenyl-specificity), the “concentration range inhibiting antigen-induced release of histamine” value was 10^−3 to 10^−5 M. Moreover, the IC50 in the assay on mast cells [1] (antigen-induced (DNP ascaris), read-out: concentration for 50% inhibition of the histamine release) is roughly 100 µM; in the assay with mast cells [2], roughly 1000 µM; in the assay with mast cells [3] (Mast cell, read-out: concentration for 50% inhibition of the substance P-induced histamine release), 327 µg/mL (≈ 999 µM). Further, in the assay with rat mast cells, the “inhibition of antigen-induced destruction of rat mast cells” value is recorded as 46.1%. Further, in the assay with mast cells [3], the “concentration for 50% inhibition of the substance P-induced histamine release” value was found to be 327 ppm. The inhibition at 50 µg/mL in assay [4] amounted to 21%.

For orientation: inhibition means the share of the control response that was lost under treatment. Read a low inhibition as a weak effect.
